Test results: patent US10752624B2, “Kinase inhibitors” (Origenis GmbH, priority 2012, dated 2020)

Columns and labels:
SYK kinase = molecular target: T1, SYK kinase (Homo sapiens, UniProt P43405); assay: SYK Assay (OMNIA Kinase Assay, SOX peptide fluorescence); assay type: biochemical; details: 1 mM ATP, 10 μM Omnia Peptide Substrate Tyr 7, 30° C., readings for 30 minutes; read-out: SYK Activities: IC50
T1 construct: purchased Invitrogen, Carlsbad
Outline: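 The reaction was run at 30 °C with 1 mM ATP, 0.2 mM DTT and 10 μM Omnia Tyr 7 peptide (final) and started by adding SYK. Chelation-enhanced SOX fluorescence (ex 360/em 485 nm) was read every 30 s for 30 min. Reaction velocity versus inhibitor concentration was fitted sigmoidally for IC50.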

LRRK2 = LRRK2 (Homo sapiens, UniProt Q5S007); assay: LRRK2-LRRK2 G2019S-Assay (LanthaScreen Eu Kinase Binding Assay); details: 5 nM LRRK2, 10 nM tracer 236, 2 nM EU-Anti-GST antibody, 1 h at RT; read-out: LRRK2 Activities: IC50
Sequence of LRRK2 (Q5S007 970-2527 limits assumed): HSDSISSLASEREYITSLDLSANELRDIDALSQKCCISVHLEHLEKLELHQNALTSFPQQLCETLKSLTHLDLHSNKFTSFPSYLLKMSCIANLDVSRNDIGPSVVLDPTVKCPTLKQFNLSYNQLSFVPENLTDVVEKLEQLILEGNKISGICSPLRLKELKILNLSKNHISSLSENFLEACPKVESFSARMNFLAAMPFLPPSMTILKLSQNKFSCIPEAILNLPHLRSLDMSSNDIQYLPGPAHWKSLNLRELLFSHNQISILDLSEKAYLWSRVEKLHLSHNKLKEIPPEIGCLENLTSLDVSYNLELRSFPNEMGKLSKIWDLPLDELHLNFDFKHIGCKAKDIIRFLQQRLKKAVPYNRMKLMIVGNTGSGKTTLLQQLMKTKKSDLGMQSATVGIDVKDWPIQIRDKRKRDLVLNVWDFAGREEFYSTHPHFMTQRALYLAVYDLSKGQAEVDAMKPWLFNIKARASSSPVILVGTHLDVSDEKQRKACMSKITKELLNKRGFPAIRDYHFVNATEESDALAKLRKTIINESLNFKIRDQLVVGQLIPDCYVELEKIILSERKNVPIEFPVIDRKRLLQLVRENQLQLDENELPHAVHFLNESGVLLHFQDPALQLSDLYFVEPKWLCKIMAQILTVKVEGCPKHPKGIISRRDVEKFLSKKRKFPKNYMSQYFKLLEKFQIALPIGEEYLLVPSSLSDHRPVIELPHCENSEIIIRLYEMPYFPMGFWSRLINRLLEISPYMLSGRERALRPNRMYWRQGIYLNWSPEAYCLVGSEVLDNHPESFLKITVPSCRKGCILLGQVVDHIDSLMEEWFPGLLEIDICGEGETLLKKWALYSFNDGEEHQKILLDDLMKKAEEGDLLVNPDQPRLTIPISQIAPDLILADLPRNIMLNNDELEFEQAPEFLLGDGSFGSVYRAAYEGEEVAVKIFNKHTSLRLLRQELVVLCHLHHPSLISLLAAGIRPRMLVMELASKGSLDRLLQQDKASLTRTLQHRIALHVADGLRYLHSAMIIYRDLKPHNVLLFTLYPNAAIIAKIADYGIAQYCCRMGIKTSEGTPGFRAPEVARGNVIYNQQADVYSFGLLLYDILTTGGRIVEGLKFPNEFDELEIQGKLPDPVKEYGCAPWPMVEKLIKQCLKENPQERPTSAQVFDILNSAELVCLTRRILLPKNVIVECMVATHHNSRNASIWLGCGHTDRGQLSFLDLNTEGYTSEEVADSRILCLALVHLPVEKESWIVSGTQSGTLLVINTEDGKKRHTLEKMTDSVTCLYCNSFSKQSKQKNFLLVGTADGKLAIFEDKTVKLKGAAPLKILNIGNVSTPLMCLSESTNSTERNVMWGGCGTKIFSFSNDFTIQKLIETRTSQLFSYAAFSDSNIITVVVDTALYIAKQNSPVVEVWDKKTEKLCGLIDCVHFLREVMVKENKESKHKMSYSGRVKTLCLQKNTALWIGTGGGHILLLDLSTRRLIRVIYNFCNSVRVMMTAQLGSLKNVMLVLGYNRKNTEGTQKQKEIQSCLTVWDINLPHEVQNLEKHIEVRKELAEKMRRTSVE
Outline: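 In a TR-FRET tracer displacement assay, LRRK2 or its mutants at 5 nM were mixed with 2 nM Eu-anti-GST antibody and 10 nM tracer 236 in kinase buffer A for 1 h at RT. The 665/615 nm emission ratio was plotted against inhibitor concentration, and IC50 came from a variable-slope sigmoidal fit.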

| SMILES | IC50 (SYK kinase) [nM] | IC50 (LRRK2) [nM] |
| --- | --- | --- |
| CS(=O)(=O)c1ccc2nc(Nc3cnn(CC(F)(F)F)c3)c3[nH]ncc3c2c1 [Example 261, 8-(methylsulfonyl)-N-(1-(2,2,2-trifluoroethyl)-1H-pyrazol-4-yl)-3H-pyrazolo[3,4-c]quinolin-4-amine] | 10 to 100 | < 10 |
| CC(C)C(C)n1cc(Nc2nc3ccc(S(C)(=O)=O)cc3c3c[nH]nc23)cn1 (stereo not drawn) [Example 324, N-(1-(3-methylbutan-2-yl)-1H-pyrazol-4-yl)-8-(methylsulfonyl)-2H-pyrazolo[3,4-c]quinolin-4-amine] | 10 to 100 | < 10 |
| COc1cccc2nc(Nc3cnn(C=C(C)C)c3)c3[nH]ncc3c12 [Example 259, 9-methoxy-N-(1-(2-methylprop-1-en-1-yl)-1H-pyrazol-4-yl)-3H-pyrazolo[3,4-c]quinolin-4-amine] | 100 to 1000 | < 10 |
| COCCn1cc(Nc2nc3cc(S(C)(=O)=O)ccc3c3cn[nH]c23)cn1 [Example 170, N-(1-(2-methoxyethyl)-1H-pyrazol-4-yl)-7-(methylsulfonyl)-3H-pyrazolo[3,4-c]quinolin-4-amine] | 100 to 1000 | 100 to 1000 |
| CSc1ccc2nc(Nc3ccc4c(c3)CN(C)C4)c3[nH]ncc3c2c1 [Example 49, N-(2-methylisoindolin-5-yl)-8-(methylthio)-3H-pyrazolo[3,4-c]quinolin-4-amine] | 100 to 1000 | 10 to 100 |
| CN1CCN(C2CCN(c3ccc(Nc4nc5cccc(F)c5c5cn[nH]c45)cc3)CC2)CC1 [Example 1, 9-fluoro-N-(4-(4-(4-methylpiperazin-1-yl)piperidin-1-yl)phenyl)-3H-pyrazolo[3,4-c]quinolin-4-amine] | 100 to 1000 | 10 to 100 |
| CS(=O)(=O)c1cccc(Nc2nc3ccc(S(C)(=O)=O)cc3c3cn[nH]c23)c1 [Example 78, 8-(methylsulfonyl)-N-(3-(methylsulfonyl)phenyl)-3H-pyrazolo[3,4-c]quinolin-4-amine] | 100 to 1000 | 10 to 100 |
| CC(C)=Cn1cc(Nc2nc3ccc(S(C)(=O)=O)cc3c3cn[nH]c23)cn1 [Example 263, N-(1-(2-methylprop-1-en-1-yl)-1H-pyrazol-4-yl)-8-(methylsulfonyl)-3H-pyrazolo[3,4-c]quinolin-4-amine] | 10 to 100 | < 10 |
| CC(C)n1ncc(Nc2nc3ccc(S(C)(=O)=O)cc3c3cn[nH]c23)c1Cl [Example 233, N-(5-chloro-1-isopropyl-1H-pyrazol-4-yl)-8-(methylsulfonyl)-3H-pyrazolo[3,4-c]quinolin-4-amine] | 100 to 1000 | < 10 |
| CS(=O)(=O)c1ccc2c(c1)nc(Nc1ccc3c(c1)NC(=O)CCC3)c1[nH]ncc12 [Example 119, 8-((7-(methylsulfonyl)-3H-pyrazolo[3,4-c]quinolin-4-yl)amino)-4,5-dihydro-1H-benzo[b]azepin-2(3H)-one] | 10 to 100 | 100 to 1000 |
| CS(=O)(=O)c1ccc2nc(Nc3ccc(N4CCOCC4)cc3)c3[nH]ncc3c2c1 [Example 55, 8-(methylsulfonyl)-N-(4-morpholinophenyl)-3H-pyrazolo[3,4-c]quinolin-4-amine] | < 10 | 10 to 100 |
| COc1ccc2nc(Nc3cnn(C4CCCOC4)c3)c3n[nH]cc3c2c1 (stereo not drawn) [Example 314, 8-methoxy-N-(1-(tetrahydro-2H-pyran-3-yl)-1H-pyrazol-4-yl)-2H-pyrazolo[3,4-c]quinolin-4-amine] | 10 to 100 | 10 to 100 |
| COc1ccc2nc(Nc3cnn(CC(C)(C)O)c3)c3[nH]ncc3c2c1 [Example 298, 1-(4-((8-methoxy-3H-pyrazolo[3,4-c]quinolin-4-yl)amino)-1H-pyrazol-1-yl)-2-methylpropan-2-ol] | 100 to 1000 | 10 to 100 |
| COc1ccc2nc(Nc3ccc4[nH]c(SC)nc4c3)c3n[nH]cc3c2c1 [Example 56, 8-methoxy-N-(2-(methylthio)-1H-benzo[d]imidazol-5-yl)-2H-pyrazolo[3,4-c]quinolin-4-amine] | 100 to 1000 | 100 to 1000 |
| CC(=O)Nc1cc(Nc2nc3ccc(S(C)(=O)=O)cc3c3c[nH]nc23)ccc1N1CCN(C(C)=O)CC1 [Example 352, N-(2-(4-acetylpiperazin-1-yl)-5-((8-(methylsulfonyl)-2H-pyrazolo[3,4-c]quinolin-4-yl)amino)phenyl)acetamide] | 10 to 100 | 10 to 100 |
| CN1CCN(c2ccc(Nc3nc4ccc(S(C)(=O)=O)cc4c4cn[nH]c34)cn2)CC1 [Example 81, N-(6-(4-methylpiperazin-1-yl)pyridin-3-yl)-8-(methylsulfonyl)-3H-pyrazolo[3,4-c]quinolin-4-amine] | 100 to 1000 | 10 to 100 |
| COc1ccc2nc(Nc3ccc(N4CCC(N5CCOCC5)CC4)cc3)c3n[nH]cc3c2c1 [Example 86, 8-methoxy-N-(4-(4-morpholinopiperidin-1-yl)phenyl)-2H-pyrazolo[3,4-c]quinolin-4-amine] | 100 to 1000 | 100 to 1000 |

Results, then the compound that gave them:

| IC50 (SYK kinase) [nM] | IC50 (LRRK2) [nM] | SMILES |
| --- | --- | --- |
| 100 to 1000 | 10 to 100 | CC(=O)Nc1cccc(Nc2nc3ccc(S(C)(=O)=O)cc3c3c[nH]nc23)c1 [Example 331, N-(3-((8-(methylsulfonyl)-2H-pyrazolo[3,4-c]quinolin-4-yl)amino)phenyl)acetamide] |
| 100 to 1000 | 100 to 1000 | Fc1cccc2nc(Nc3ccc(N4CCN(C5CC5)CC4)cc3)c3[nH]ncc3c12 [Example 10, N-(4-(4-cyclopropylpiperazin-1-yl)phenyl)-9-fluoro-3H-pyrazolo[3,4-c]quinolin-4-amine] |
| 10 to 100 | 10 to 100 | CC(C)n1cc(Nc2nc3cc(S(C)(=O)=O)ccc3c3cn[nH]c23)cn1 [Example 189, N-(1-isopropyl-1H-pyrazol-4-yl)-7-(methylsulfonyl)-3H-pyrazolo[3,4-c]quinolin-4-amine] |
| 10 to 100 | 10 to 100 | COc1ccc2nc(Nc3ccc(N4CCN(CCO)CC4)cc3)c3[nH]ncc3c2c1 [Example 297, 2-(4-(4-((8-methoxy-3H-pyrazolo[3,4-c]quinolin-4-yl)amino)phenyl)piperazin-1-yl)ethan-1-ol] |
| < 10 | < 10 | CS(=O)(=O)c1ccc2nc(Nc3ccc4c(c3)NC(=O)CCC4)c3[nH]ncc3c2c1 [Example 77, 8-((8-(methylsulfonyl)-3H-pyrazolo[3,4-c]quinolin-4-yl)amino)-4,5-dihydro-1H-benzo[b]azepin-2(3H)-one] |
| 10 to 100 | 10 to 100 | CS(=O)(=O)c1ccc2nc(Nc3ccc(C(N)=O)cc3)c3[nH]ncc3c2c1 [Example 66, 4-((8-(methylsulfonyl)-3H-pyrazolo[3,4-c]quinolin-4-yl)amino)benzamide] |
| 100 to 1000 | 10 to 100 | COc1nn(C2CCN(C(C)(C)C)CC2)cc1Nc1nc2ccc(S(C)(=O)=O)cc2c2cn[nH]c12 [Example 228, N-(1-(1-(tert-butyl)piperidin-4-yl)-3-methoxy-1H-pyrazol-4-yl)-8-(methylsulfonyl)-3H-pyrazolo[3,4-c]quinolin-4-amine] |
| 100 to 1000 | 10 to 100 | CS(=O)(=O)c1ccc2nc(Nc3ccc(N4CCOC4=O)cc3)c3[nH]ncc3c2c1 [Example 76, 3-(4-((8-(methylsulfonyl)-3H-pyrazolo[3,4-c]quinolin-4-yl)amino)phenyl)oxazolidin-2-one] |
| 100 to 1000 | < 10 | COc1cccc2nc(Nc3cnn(CC(F)(F)F)c3)c3[nH]ncc3c12 [Example 257, 9-methoxy-N-(1-(2,2,2-trifluoroethyl)-1H-pyrazol-4-yl)-3H-pyrazolo[3,4-c]quinolin-4-amine] |
| 100 to 1000 | 10 to 100 | COc1ccc2nc(Nc3cnn(C(C)C(C)C)c3)c3n[nH]cc3c2c1 (stereo not drawn) [Example 321, 8-methoxy-N-(1-(3-methylbutan-2-yl)-1H-pyrazol-4-yl)-2H-pyrazolo[3,4-c]quinolin-4-amine] |
| 100 to 1000 | < 10 | COc1ccc2nc(Nc3cnn(C(C)(C)C)c3)c3[nH]ncc3c2c1 [Example 286, N-(1-(tert-butyl)-1H-pyrazol-4-yl)-8-methoxy-3H-pyrazolo[3,4-c]quinolin-4-amine] |
| 10 to 100 | < 10 | COCC(C)(C)n1cc(Nc2nc3ccc(S(C)(=O)=O)cc3c3cn[nH]c23)cn1 [Example 208, N-(1-(1-methoxy-2-methylpropan-2-yl)-1H-pyrazol-4-yl)-8-(methylsulfonyl)-3H-pyrazolo[3,4-c]quinolin-4-amine] |
| 100 to 1000 | 10 to 100 | COc1ccc2nc(Nc3cnn(C4CCOCC4)c3)c3n[nH]cc3c2c1 [Example 85, 8-methoxy-N-(1-(tetrahydro-2H-pyran-4-yl)-1H-pyrazol-4-yl)-2H-pyrazolo[3,4-c]quinolin-4-amine] |
| 100 to 1000 | < 10 | COCC(C)(C)n1cc(Nc2nc3cccc(OC)c3c3cn[nH]c23)cn1 [Example 204, 9-methoxy-N-(1-(1-methoxy-2-methylpropan-2-yl)-1H-pyrazol-4-yl)-3H-pyrazolo[3,4-c]quinolin-4-amine] |
| 100 to 1000 | 10 to 100 | COc1c(Nc2nc3ccc(S(C)(=O)=O)cc3c3cn[nH]c23)cnn1C1CCN(C(C)(C)C)CC1 [Example 229, N-(1-(1-(tert-butyl)piperidin-4-yl)-5-methoxy-1H-pyrazol-4-yl)-8-(methylsulfonyl)-3H-pyrazolo[3,4-c]quinolin-4-amine] |
| 10 to 100 | < 10 | COCCCn1cc(Nc2nc3ccc(S(C)(=O)=O)cc3c3cn[nH]c23)cn1 [Example 178, N-(1-(3-methoxypropyl)-1H-pyrazol-4-yl)-8-(methylsulfonyl)-3H-pyrazolo[3,4-c]quinolin-4-amine] |
